Measured values: patent US20250313548A1 (Actio Biosciences, Inc., priority 2023, published 2025)
Where a name gives a salt, the structure may show the parent alone.

Each compound was assayed against human, KCNT1 (Homo sapiens (Human), UniProt Q5JUK3) (assay: FLIPR Tl/K Flux Assay). Conditions: HEK293 cells stably expressing human KCNT1; Tl+ flux stimulated with EC80 of agonist Loxapine.
Type: cell-based
Summary of the method: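 HEK293 cells stably expressing human KCNT1 were loaded with FLIPR potassium dye in HEPES/HBSS pH 7.4 with 5 mM probenecid, 1 h at 25 °C, then given test compound for 30 min at 25 °C. Tl+ flux was triggered with chloride-free buffer containing Tl+ and EC80 loxapine and read 160 s. IC50 came from Hill fits of % inhibition.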

Sequence of human, KCNT1 (Q5JUK3 whole entry): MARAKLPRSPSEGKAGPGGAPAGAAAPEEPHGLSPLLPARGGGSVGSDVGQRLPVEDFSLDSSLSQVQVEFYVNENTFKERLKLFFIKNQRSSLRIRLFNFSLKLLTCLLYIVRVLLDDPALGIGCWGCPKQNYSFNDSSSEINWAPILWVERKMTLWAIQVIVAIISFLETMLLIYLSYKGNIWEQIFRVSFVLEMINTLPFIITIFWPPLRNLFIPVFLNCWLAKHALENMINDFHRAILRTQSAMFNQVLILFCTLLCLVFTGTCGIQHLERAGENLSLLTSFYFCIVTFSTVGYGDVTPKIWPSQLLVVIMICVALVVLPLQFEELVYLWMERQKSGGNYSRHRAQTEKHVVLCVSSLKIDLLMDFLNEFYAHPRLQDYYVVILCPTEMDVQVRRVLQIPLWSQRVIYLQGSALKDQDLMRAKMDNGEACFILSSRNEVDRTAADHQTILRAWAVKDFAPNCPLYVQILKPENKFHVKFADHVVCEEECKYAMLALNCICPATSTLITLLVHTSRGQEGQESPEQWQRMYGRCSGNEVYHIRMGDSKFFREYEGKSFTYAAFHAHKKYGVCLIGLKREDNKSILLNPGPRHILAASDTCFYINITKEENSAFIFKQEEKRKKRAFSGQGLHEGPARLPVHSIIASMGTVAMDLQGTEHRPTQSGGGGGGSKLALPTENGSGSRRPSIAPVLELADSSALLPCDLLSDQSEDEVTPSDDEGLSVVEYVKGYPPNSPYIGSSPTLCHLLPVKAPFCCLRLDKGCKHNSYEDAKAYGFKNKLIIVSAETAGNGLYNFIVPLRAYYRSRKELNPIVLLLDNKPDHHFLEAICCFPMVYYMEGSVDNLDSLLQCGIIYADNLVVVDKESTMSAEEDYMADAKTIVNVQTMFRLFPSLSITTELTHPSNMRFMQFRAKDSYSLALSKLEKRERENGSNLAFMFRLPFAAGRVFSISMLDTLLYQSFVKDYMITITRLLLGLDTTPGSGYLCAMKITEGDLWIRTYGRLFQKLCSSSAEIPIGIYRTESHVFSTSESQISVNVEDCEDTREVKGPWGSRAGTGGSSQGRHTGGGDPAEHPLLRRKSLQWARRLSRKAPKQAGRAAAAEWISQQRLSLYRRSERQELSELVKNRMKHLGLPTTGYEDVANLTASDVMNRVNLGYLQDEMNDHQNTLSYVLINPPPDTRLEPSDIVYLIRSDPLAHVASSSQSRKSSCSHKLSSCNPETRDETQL

| SMILES | IC50 |
| --- | --- |
| COc1cc(-n2cc3c(n2)CC[C@@H]3NC(=O)c2ccc(F)c(C#N)c2)ccn1 [Compound I-259a, (S)-3-Cyano-4-fluoro-N-(2-(2-methoxypyridin-4-yl)-2,4,5,6-tetrahydrocyclopenta[c]pyrazol-4-yl)benzamide] | < 250 nM |
| COc1cc(-c2nc3n(n2)CCC[C@@H]3NC(=O)c2cc(C(F)(F)F)nn2C)ccn1 [Compound I-260a, (S)—N-(2-(2-Methoxypyridin-4-yl)-5,6,7,8-tetrahydro-[1,2,4]triazolo[1,5-a]pyridin-8-yl)-1-methyl-3-(trifluoromethyl)-1H-pyrazole-5-carboxamide] | 250 to 500 nM |
| CC(F)(F)c1cc(-c2cc3n(n2)CC[C@@H]3NC(=O)c2cccc(C#N)c2)ccn1 [Compound I-261a, (S)-3-Cyano-N-(2-(2-(1,1-difluoroethyl)pyridin-4-yl)-5,6-dihydro-4H-pyrrolo[1,2-b]pyrazol-4-yl)benzamide] | < 250 nM |
| N#Cc1cc(F)cc(C(=O)N[C@H]2CCCn3nc(-c4ccnc(C5CC5)c4)cc32)c1 [Compound I-262a] | < 250 nM |
| N#Cc1cccc(C(=O)N[C@H]2CCCCn3cc(-c4ccnc(C(F)(F)F)c4)cc32)c1 [Compound I-263a, (S)-3-Cyano-N-(2-(2-(trifluoromethyl)pyridin-4-yl)-6,7,8,9-tetrahydro-5H-pyrrolo[1,2-a]azepin-9-yl)benzamide] | < 250 nM |
| CCOc1cc(C(=O)N[C@H]2CCn3nc(-c4ccnc(C(F)(F)F)c4)cc32)ccn1 [Compound I-264a] | < 250 nM |
| N#Cc1cc(F)cc(C(=O)N[C@H]2CCCCn3nc(-c4ccnc(C5CC5)c4)cc32)c1 [Compound I-265a, (S)-3-Cyano-N-(2-(2-cyclopropylpyridin-4-yl)-5,6,7,8-tetrahydro-4H-pyrazolo[1,5-a]azepin-4-yl)-5-fluorobenzamide] | < 250 nM |
| N#Cc1cc(C(=O)N[C@H]2CCn3nc(-c4ccnc(C(F)(F)F)c4)cc32)ccc1F [Compound I-266a, (S)-3-Cyano-4-fluoro-N-(2-(2-(trifluoromethyl)pyridin-4-yl)-5,6-dihydro-4H-pyrrolo[1,2-b]pyrazol-4-yl)benzamide] | < 250 nM |
| N#Cc1cc(C(=O)N[C@H]2CCc3nn(-c4ccnc(C(F)(F)F)c4)cc32)ccc1F [Compound I-267a, (S)-3-Cyano-4-fluoro-N-(2-(2-(trifluoromethyl)pyridin-4-yl)-2,4,5,6-tetrahydrocyclopenta[c]pyrazol-4-yl)benzamide] | < 250 nM |
| COc1cc(C(=O)N[C@H]2CCCCn3nc(-c4ccnc(C(C)(F)F)c4)cc32)ccn1 [Compound I-273a] | < 250 nM |
| CC(F)(F)c1cc(-n2cc3c(n2)CC[C@@H]3NC(=O)c2cccc(C#N)c2)ccn1 [Compound I-274a, (S)-3-Cyano-N-(2-(2-(1,1-difluoroethyl)pyridin-4-yl)-2,4,5,6-tetrahydrocyclopenta[c]pyrazol-4-yl)benzamide] | < 250 nM |
| COc1cc(-c2nc3c(o2)CCC[C@@H]3NC(=O)c2cc(F)cc(C#N)c2)ccn1 [Compound I-275a] | < 250 nM |
| N#Cc1cc(C(=O)N[C@H]2CCCCn3nc(-c4ccnc(C(F)(F)F)c4)cc32)ccc1F [Compound I-277a, (S)-3-Cyano-4-fluoro-N-(2-(2-(trifluoromethyl)pyridin-4-yl)-5,6,7,8-tetrahydro-4H-pyrazolo[1,5-a]azepin-4-yl)benzamide] | < 250 nM |
| N#Cc1ccc(F)c(C(=O)N[C@H]2CCCn3nc(-c4ccnc(C(F)(F)F)c4)cc32)c1 [Compound I-278a, (S)-5-Cyano-2-fluoro-N-(2-(2-(trifluoromethyl)pyridin-4-yl)-4,5,6,7-tetrahydropyrazolo[1,5-a]pyridin-4-yl)benzamide] | < 250 nM |
| O=C(N[C@H]1CCn2nc(-c3ccnc(C4CC4)c3)cc21)c1cc2cccnn2c1 [Compound I-279a, (S)-N-(2-(2-Cyclopropylpyridin-4-yl)-5,6-dihydro-4H-pyrrolo[1,2-b]pyrazol-4-yl)pyrrolo[1,2-b]pyridazine-6-carboxamide] | < 250 nM |
| Cc1cnc(C(F)(F)F)cc1-c1cc2n(n1)CCCC[C@@H]2NC(=O)c1cccc(C#N)c1 [Compound I-280a, (S)-3-Cyano-N-(2-(5-methyl-2-(trifluoromethyl)pyridin-4-yl)-5,6,7,8-tetrahydro-4H-pyrazolo[1,5-a]azepin-4-yl)benzamide] | < 250 nM |
| Cc1cc(C#N)cc(C(=O)N[C@H]2CCCn3nc(-c4ccnc(C5CC5)c4)cc32)c1 [Compound I-281a, (S)-3-Cyano-N-(2-(2-cyclopropylpyridin-4-yl)-4,5,6,7-tetrahydropyrazolo[1,5-a]pyridin-4-yl)-5-methylbenzamide TFA salt] | < 250 nM |

| SMILES | IC50 |
| --- | --- |
| CCOc1cc(C(=O)N[C@H]2CCCn3nc(-c4ccnc(C(F)(F)F)c4)cc32)ccn1 [Compound I-282a, (S)-2-Ethoxy-N-(2-(2-(trifluoromethyl)pyridin-4-yl)-4,5,6,7-tetrahydropyrazolo[1,5-a]pyridin-4-yl)isonicotinamide] | < 250 nM |
| CCOc1cc(C(=O)N[C@H]2CCCCn3nc(-c4ccnc(C(F)(F)F)c4)cc32)ccn1 [Compound I-283a, (S)-2-Ethoxy-N-(2-(2-(trifluoromethyl)pyridin-4-yl)-5,6,7,8-tetrahydro-4H-pyrazolo[1,5-a]azepin-4-yl)isonicotinamide] | < 250 nM |
| COc1cc(-c2cc3n(n2)CCC[C@@H]3NC(=O)c2cc(C#N)cc(C(F)(F)F)c2)ccn1 [Compound I-284a, (S)-3-Cyano-N-(2-(2-methoxypyridin-4-yl)-4,5,6,7-tetrahydropyrazolo[1,5-a]pyridin-4-yl)-5-(trifluoromethyl)benzamide] | < 250 nM |
| COc1cc(-c2cc3n(n2)CC[C@@H]3NC(=O)c2cc(C#N)cc(C(F)(F)F)c2)ccn1 [Compound I-285a, (S)-3-Cyano-N-(2-(2-methoxypyridin-4-yl)-5,6-dihydro-4H-pyrrolo[1,2-b]pyrazol-4-yl)-5-(trifluoromethyl)benzamide] | < 250 nM |
| COc1cc(-c2cc3n(n2)CC[C@@H]3NC(=O)c2cccc(C(F)(F)F)c2)ccn1 [Compound I-286a, (S)-N-(2-(2-Methoxypyridin-4-yl)-5,6-dihydro-4H-pyrrolo[1,2-b]pyrazol-4-yl)-3-(trifluoromethyl)benzamide] | < 250 nM |
| COc1cc(-c2cc3n(n2)CCC[C@@H]3NC(=O)c2cc(F)cc(C(F)(F)F)c2)ccn1 [Compound I-287a, (S)-3-Fluoro-N-(2-(2-methoxypyridin-4-yl)-4,5,6,7-tetrahydropyrazolo[1,5-a]pyridin-4-yl)-5-(trifluoromethyl)benzamide] | < 250 nM |
| N#Cc1cc(C(=O)N[C@H]2CCn3nc(-c4ccnc(C(F)(F)F)c4)cc32)cc(C(F)(F)F)c1 [Compound I-288a, (S)-3-Cyano-5-(trifluoromethyl)-N-(2-(2-(trifluoromethyl)pyridin-4-yl)-5,6-dihydro-4H-pyrrolo[1,2-b]pyrazol-4-yl)benzamide] | < 250 nM |
| O=C(N[C@H]1CCn2nc(-c3ccnc(C(F)(F)F)c3)cc21)c1cccc(C(F)(F)F)c1 [Compound I-289a, (S)-3-(Trifluoromethyl)-N-(2-(2-(trifluoromethyl)pyridin-4-yl)-5,6-dihydro-4H-pyrrolo[1,2-b]pyrazol-4-yl)benzamide] | < 250 nM |
| O=C(N[C@H]1CCCn2nc(-c3ccnc(C(F)(F)F)c3)cc21)c1cccc(C(F)(F)F)c1 [Compound I-290a, (S)-3-(Trifluoromethyl)-N-(2-(2-(trifluoromethyl)pyridin-4-yl)-4,5,6,7-tetrahydropyrazolo[1,5-a]pyridin-4-yl)benzamide] | < 250 nM |
| O=C(N[C@H]1CCn2nc(-c3ccnc(C(F)(F)F)c3)cc21)c1cc2cccnn2c1 [Compound I-291a, (S)-N-(2-(2-(Trifluoromethyl)pyridin-4-yl)-5,6-dihydro-4H-pyrrolo[1,2-b]pyrazol-4-yl)pyrrolo[1,2-b]pyridazine-6-carboxamide] | < 250 nM |
| COc1cc(-c2cc3n(n2)CC[C@@H]3NC(=O)c2cc3cccnn3c2)ccn1 [Compound I-292a, (S)-N-(2-(2-Methoxypyridin-4-yl)-5,6-dihydro-4H-pyrrolo[1,2-b]pyrazol-4-yl)pyrrolo[1,2-b]pyridazine-6-carboxamide] | < 250 nM |
| COc1cc(-c2nc3c(o2)CCC[C@@H]3NC(=O)c2cc3cccnn3c2)ccn1 [Compound I-293a, (S)-N-(2-(2-Methoxypyridin-4-yl)-4,5,6,7-tetrahydrobenzo[d]oxazol-4-yl)pyrrolo[1,2-b]pyridazine-6-carboxamide] | 250 to 500 nM |
| COc1cc(-c2nc3c(o2)CCC[C@@H]3NC(=O)c2cccc(C#N)c2)ccn1 [Compound I-294a, (S)-3-Cyano-N-(2-(2-methoxypyridin-4-yl)-4,5,6,7-tetrahydrobenzo[d]oxazol-4-yl)benzamide] | < 250 nM |
| N#Cc1cc(C(=O)N[C@H]2CCCn3nc(-c4ccnc(C(F)(F)F)c4)cc32)cc(C(F)(F)F)c1 [Compound I-295a, (S)-3-Cyano-5-(trifluoromethyl)-N-(2-(2-(trifluoromethyl)pyridin-4-yl)-4,5,6,7-tetrahydropyrazolo[1,5-a]pyridin-4-yl)benzamide] | < 250 nM |
| O=C(N[C@H]1CCCc2oc(-c3ccnc(C(F)(F)F)c3)nc21)c1cc2cccnn2c1 [Compound I-296a, (S)-N-(2-(2-(Trifluoromethyl)pyridin-4-yl)-4,5,6,7-tetrahydrobenzo[d]oxazol-4-yl)pyrrolo[1,2-b]pyridazine-6-carboxamide] | < 250 nM |
| N#Cc1cccc(C(=O)N[C@H]2CCCc3oc(-c4ccnc(C(F)(F)F)c4)nc32)c1 [Compound I-297a, (S)-3-Cyano-N-(2-(2-(trifluoromethyl)pyridin-4-yl)-4,5,6,7-tetrahydrobenzo[d]oxazol-4-yl)benzamide] | < 250 nM |
| N#Cc1cc(F)cc(C(=O)N[C@H]2CCCc3oc(-c4ccnc(C(F)(F)F)c4)nc32)c1 [Compound I-298a, (S)-3-Cyano-5-fluoro-N-(2-(2-(trifluoromethyl)pyridin-4-yl)-4,5,6,7-tetrahydrobenzo[d]oxazol-4-yl)benzamide] | < 250 nM |
